Non-standard residues stand in square brackets, D forms with d. Residues, ends and D or L forms follow the SMILES beside them.

Chain of alanyl aminopeptidases (APN) (P15144 whole entry, species assumed): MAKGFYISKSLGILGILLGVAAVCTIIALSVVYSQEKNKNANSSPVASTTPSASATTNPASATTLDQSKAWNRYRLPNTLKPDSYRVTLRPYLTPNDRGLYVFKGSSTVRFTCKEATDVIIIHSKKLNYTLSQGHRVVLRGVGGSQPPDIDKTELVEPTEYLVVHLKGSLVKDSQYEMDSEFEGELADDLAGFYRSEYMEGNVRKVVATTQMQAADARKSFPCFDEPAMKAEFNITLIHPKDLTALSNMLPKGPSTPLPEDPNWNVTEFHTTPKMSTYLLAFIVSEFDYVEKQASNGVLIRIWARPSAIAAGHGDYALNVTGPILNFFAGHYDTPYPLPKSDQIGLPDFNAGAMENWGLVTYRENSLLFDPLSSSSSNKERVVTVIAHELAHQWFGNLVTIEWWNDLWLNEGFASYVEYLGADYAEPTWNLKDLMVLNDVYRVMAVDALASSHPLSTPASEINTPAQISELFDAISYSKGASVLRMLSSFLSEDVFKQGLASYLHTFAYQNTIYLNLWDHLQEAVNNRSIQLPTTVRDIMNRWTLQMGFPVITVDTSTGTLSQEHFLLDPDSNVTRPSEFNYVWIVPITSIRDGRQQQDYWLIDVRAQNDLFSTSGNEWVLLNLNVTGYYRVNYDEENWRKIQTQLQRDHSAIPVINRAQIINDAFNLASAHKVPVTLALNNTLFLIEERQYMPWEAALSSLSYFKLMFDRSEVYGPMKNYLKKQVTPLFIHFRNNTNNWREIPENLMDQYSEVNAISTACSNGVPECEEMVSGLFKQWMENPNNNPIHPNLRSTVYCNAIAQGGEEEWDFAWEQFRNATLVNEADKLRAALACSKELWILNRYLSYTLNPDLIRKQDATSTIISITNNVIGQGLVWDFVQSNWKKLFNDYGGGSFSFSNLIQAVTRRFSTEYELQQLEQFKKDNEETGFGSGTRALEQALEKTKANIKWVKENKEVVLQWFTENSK

The first assay addresses alanyl aminopeptidases (APN) (Homo sapiens, UniProt P15144). The assay can be described thus: Inhibition of alanyl aminopeptidase enzymatic activity, fluorogenic substrate (Ala)2-rhodamine 110. It is filed as biochemical. To be noted: Table 1, unstarred values; read-out: IC50APN. On the procedure:
The inhibition characteristics measured are referred to as IC-50 values or ID50 values (the latter marked with “*”) for said enzyme. The enzymatic activity was determined by means of the fluorogenic substrate/product (Ala)2-rhodamine 110.
For `O=C(CCCCCN1C(=O)c2cccc3cccc(c23)C1=O)NO` [A1.009], the IC50 was determined as 14.1 µM.
The same measure, in the same setting: the figure for `O=C(CCOC(c1ccccc1)c1ccc(Cl)cc1)NO` (stereo not drawn) [A1.005] is 7.3 µM.
Same read-out and setting: the result for `O=C(O)C1N=NC(c2ccc(F)cc2)=CN1O` (stereo not drawn) [A1.011] reads 17.1 µM.

The assay is the same for the next values; noted with them: Table 3, starred values = ID50; read-out: ID50 APN (values marked with *).
Turning to `C/C(=C\c1ccc(C(C)C)cc1)C1NCC(c2ccc([N+](=O)[O-])cc2)O1` (stereo not drawn) [A3.345], the IC50 stood at 293 µM.
On the same count and under the same terms, the figure for `COc1cccc(C(=O)NCC(=O)N/N=C/c2ccc([N+](=O)[O-])o2)c1` [A3.340] is 222 µM.
On the same count and under the same terms, the figure for `CCOC(=O)c1c(-c2ccccc2)c[nH]c1N` [A3.336] is 169 µM; for `Cc1cccc(C(=O)Nc2ccc(C(=O)N/N=C/c3ccco3)cc2)c1` [A3.293] it is 67.1 µM; for `CCc1ccc(N2C(=O)C3C(c4cccc(Cl)c4)OC4(C(=O)c5ccccc5C4=O)C3C2=O)cc1` (stereo not drawn) [A3.350] it is 336 µM.

Staying with this assay, now noted: Table 3, unstarred values; read-out: IC50APN.
On to `O=c1[nH]c(/C=C/c2ccco2)cc2ccccc12` [A3.067], for which the IC50 turned out to be 14.6 µM.
Still for that read-out and setting: the figure for `COc1ccc(C(=O)N/N=C/c2cc(Br)c(C)o2)cc1` [A3.125] is 21.8 µM; for `COc1ccc(/C=C(/NC(=O)c2ccccc2)C(=O)N/N=C\C=C\c2ccc(C)o2)cc1OC` [A3.081] it is 16.7 µM.
Consider `CCCOC(=O)c1cc(-c2ccc(/C=C3/C(=O)N(CC(C)O)C(=O)C(C#N)=C3C)o2)ccc1Cl` (stereo not drawn) [A3.193], for which the IC50 worked out at 32 µM.
The same measure, in the same setting: the figure for `O=C(Cn1cnc2ccccc21)N/N=C/c1ccco1` [A3.238] is 43.3 µM; for `CC(=O)N1CCOC1(C)c1ccc([N+](=O)[O-])cc1` (stereo not drawn) [A3.200] it is 32.8 µM.
`O=C(CNC(=O)c1ccccc1F)N/N=C/c1ccc([N+](=O)[O-])o1` [A3.280]: the IC50 turned out to be 60 µM.
Still for that read-out and setting: the figure for `COc1cc(Br)ccc1OCC(=O)N/N=C/c1cc(Br)c(O)c(O)c1Br` [A3.109] is 20.5 µM; for `O=C(N/N=C/c1cc(Br)ccc1OC(=O)c1ccc([N+](=O)[O-])cc1)/C(=C\c1ccc2c(c1)OCO2)NC(=O)c1ccccc1` [A3.271] it is 54.2 µM; for `CCOC(=O)C1=C2SCC(=O)N2C(N)=C(C#N)C1` [A3.139] it is 23.1 µM.
Same read-out and setting: the figure for `O=C(Nc1ccccc1F)c1ccc([N+](=O)[O-])o1` [A3.281] is 62.4 µM; for `COc1ccc(OC)c(NC(=O)/C=C/c2ccc(C)o2)c1` [A3.277] it is 56.8 µM; for `CC(=O)n1cc(/C=C/C=N/NC(=O)CC#N)c2ccccc21` [A3.214] it is 35.5 µM.
Still for that read-out and setting: the result for `Cc1c(Cl)cccc1NC(=O)CCC(=O)N/N=C/c1ccco1` [A3.220] reads 36.6 µM; that for `O=C(CCC(=O)Nc1ccccc1)N/N=C/c1ccco1` [A3.234], 41.1 µM.
With `COc1ccc2ccccc2c1-c1cc(C(=O)N/N=C(\C)c2ccco2)[nH]n1` [A3.228], the IC50 was 38.2 µM.
In the case of `CC(=O)Nc1ccc(C(=O)N/N=C/c2ccco2)cc1` [A3.230], the IC50 came out at 38.4 µM.
The same measure, in the same setting: the result for `Cc1ccc(/C=N/NC(=O)c2cccc(Cl)c2)o1` [A3.039] reads 10.5 µM; that for `O=C1C(Cc2ccc(O)cc2)NC(=S)N1c1ccccc1` (stereo not drawn) [A3.292], 66.6 µM.
With `C(=C\c1ccco1)/c1nc2ccccc2[nH]1` [A3.176], the IC50 was found to be 28.7 µM.
The same measure, in the same setting: the figure for `CC(=O)c1ccc(NC(=O)/C=C/c2ccc(C)o2)cc1` [A3.272] is 54.4 µM.
Still for that read-out and setting: the figure for `COc1ccc(OC)c(-c2cc(C(=O)N/N=C/c3ccco3)[nH]n2)c1` [A3.237] is 43.2 µM; for `O=C(O)c1ccc2c(c1)C(=O)/C(=C\c1ccco1)C2=O` [A3.144] it is 23.7 µM.

Staying with this assay, now noted: Table 4, starred values = ID50; read-out: ID50 APN (values marked with *).
Regarding `O=C(N/N=C\C=C\c1ccco1)c1cc(-c2cccs2)n[nH]1` [A4.175], the IC50 was determined as 132 µM.
Still for that read-out and setting: the result for `COc1cccc(C(=O)NCC(=O)N/N=C/c2ccc([N+](=O)[O-])o2)c1` [A4.183] reads 222 µM.
Still for that read-out and setting: the figure for `CC(C(=O)N/N=C/c1ccco1)n1nnc2ccccc21` (stereo not drawn) [A4.176] is 146 µM.

Staying with this assay, now noted: Table 4, unstarred values; read-out: IC50APN.
For `Cc1ccc(/C=N/NC(=O)c2cc(C)oc2C)o1` [A4.142], the IC50 came out at 50.2 µM.
For `C/C(=N\NC(=O)c1ccccc1)c1ccc2ccccc2c1O` [A4.107], the IC50 turned out to be 34.2 µM.
As for `O=C(COc1ccc(F)cc1)N/N=C/c1ccco1` [A4.026], the IC50 came out at 13.6 µM.
Take `O=C(N/N=C/c1ccco1)c1ccc(F)cc1` [A4.159]: the IC50 stood at 68.9 µM.
For `O=C(CCC(=O)Nc1ccccc1)N/N=C/c1ccco1` [A4.125], the IC50 is 41.1 µM.
Still for that read-out and setting: the result for `Cc1nc(C)c(C(=O)N/N=C/c2ccco2)s1` [A4.021] reads 12.3 µM; that for `CC(=O)Nc1ccc(C(=O)N/N=C/c2ccco2)cc1` [A4.123], 38.4 µM.
Still for that read-out and setting: the result for `COc1cc(-c2cc(C(=O)N/N=C/c3ccco3)[nH]n2)ccc1OC(C)C` [A4.114] reads 36.1 µM.
The same measure, in the same setting: the result for `Cc1ccc(/C=N/NC(=O)c2ccc(NC(=O)c3ccccc3C)cc2)o1` [A4.067] reads 22.8 µM; that for `O=C(CNC(=O)C(c1ccccc1)c1ccccc1)N/N=C/c1ccco1` [A4.034], 15.6 µM; that for `O=C(N/N=C/c1cccc([N+](=O)[O-])c1)c1ccco1` [A4.132], 45.4 µM.
Consider `Cc1ccc(/C=N\NC(=O)Cc2cccs2)o1` [A4.144], for which the IC50 is 51.1 µM.
`O=C(N/N=C\c1ccco1)c1ccc(S(=O)(=O)N2CCCCCC2)cc1` [A4.013]: the IC50 was determined as 8 µM.
On the same count and under the same terms, the result for `COc1cc(Br)cc(Br)c1OCC(=O)N/N=C/c1cc(O)c(O)c(Br)c1Br` [A4.010] reads 7.2 µM; that for `Cc1ccc(/C=N/NC(=O)c2cc(O)cc(O)c2)o1` [A4.083], 26.4 µM.
Turning to `CC(/C=C/c1ccco1)=N\NC(=O)COc1ccc(C(C)(C)C)cc1` [A4.145], the IC50 amounted to 53.4 µM.
Take `O=C(N/N=C/c1ccco1)c1ccc(O)cc1O` [A4.122]: the IC50 was found to be 38.3 µM.

The assay is the same for the next values; noted with them: Table 6; read-out: IC50APN.
With `Cc1ccc(S(=O)(=O)N2CCC(C(=O)N/N=C/c3ccco3)CC2)cc1` [A6.017], the IC50 worked out at 69.3 µM.

The same assay, now with this note: Table 7; read-out: IC50APN.
For the molecule `Cc1cccc(C)c1NC(=S)NC(=O)c1cccs1` [A7.007], the IC50 was 12.9 µM.
For the molecule `O=C1C(Cc2ccc(O)cc2)NC(=S)N1C1CCCCC1` (stereo not drawn) [A7.011], the IC50 was 21.3 µM.

Still in this assay, the particulars now being: Table 8, unstarred values; read-out: IC50APN.
Take `Cc1ccc(/C=N/NC2=NC(=O)CS2)o1` [A8.022]: the IC50 is 26.4 µM.
`CC(C)(C)OC(=O)N/N=C\C=C\c1ccco1` [A8.008]: the IC50 worked out at 10.8 µM.

Still in this assay, the particulars now being: Table 9, starred values = ID50; read-out: ID50 APN (values marked with *).
`CC(C)Oc1ccc(/C=N/CCC2(c3ccccc3)CCOC(C)(C)C2)cc1` (stereo not drawn) [A9.126]: the IC50 came out at 197 µM.
Consider `CCOC(=O)c1ccc(-c2ccc(/C=C3\C(=O)N(CCO)C(=O)C(C#N)=C3C)o2)cc1` [A9.005], for which the IC50 turned out to be 2.7 µM.
The same measure, in the same setting: the figure for `CCCCOC(=O)c1cccc(-c2ccc(/C=C3\C(=O)N(CCO)C(=O)C(C#N)=C3C)o2)c1` [A9.021] is 10.2 µM.

Still in this assay, the particulars now being: Table 9, unstarred values; read-out: IC50APN.
Consider `COC(=O)c1ccc(-c2ccc(/C=C3\C(=O)N(CCCO)C(=O)C(C#N)=C3C)o2)cc1` [A9.008], for which the IC50 worked out at 5 µM.
On the same count and under the same terms, the result for `CCOC(=O)c1cc(Br)ccc1-c1ccc(/C=C2\C(=O)N=C(O)C(C#N)=C2C)o1` [A9.098] reads 49.9 µM; that for `CC1=C(C#N)C(=O)N(CCCO)C(=O)/C1=C\c1ccc(-c2cc(C)c(C)cc2[N+](=O)[O-])o1` [A9.019], 9.7 µM; that for `O=C(N/C(=C\c1ccco1)C(=O)N1CCCCC1)c1ccco1` [A9.022], 10.6 µM.
On the same count and under the same terms, the figure for `CC(C)COc1ccc(C(=O)N/C(=C\c2ccco2)C(=O)N2CCOCC2)cc1` [A9.027] is 13.1 µM; for `O=c1[nH]cc([N+](=O)[O-])cc1C(F)(F)F` [A9.077] it is 29.9 µM.
On the same count and under the same terms, the result for `CCCOC(=O)C(NC(=O)c1ccc(OC)cc1)(N1CCOCC1)C(F)(F)F` (stereo not drawn) [A9.115] reads 90.2 µM.
In the case of `CC1=C(C#N)C(=O)N(CC(C)O)C(=O)/C1=C/c1ccc(-c2cccc(Cl)c2C)o1` (stereo not drawn) [A9.072], the IC50 was determined as 28.6 µM.
Turning to `CCOC(=O)C1CCN(C(=O)/C(=C/c2ccco2)NC(=O)c2ccc(C)c(C)c2)CC1` [A9.089], the IC50 was found to be 34.5 µM.
Still for that read-out and setting: the figure for `O=[N+]([O-])c1ncn(CN2CCOCC2)n1` [A9.090] is 36.8 µM.
Same read-out and setting: the result for `COC(=O)C1=C(C(=O)OC)C(c2cc(Br)ccc2O)c2sc(O)nc2S1` (stereo not drawn) [A9.006] reads 4.7 µM.

The same assay, now with this note: Table 11; read-out: IC50APN.
For `O=C(Nc1ccc(O)cc1C(=O)O)c1cccc(N2C(=O)c3cccc4c([N+](=O)[O-])ccc(c34)C2=O)c1` [A11.017], the IC50 was 23.6 µM.
Still for that read-out and setting: the figure for `CC1CC(=O)N(C(=O)CCBr)c2ccc([N+](=O)[O-])cc2N1C(=O)CCBr` (stereo not drawn) [A11.033] is 99.8 µM; for `O=C(N/C(=C\c1cccc([N+](=O)[O-])c1)C(=O)N(CCO)CCO)c1ccco1` [A11.037] it is 244 µM; for `O=C(Cc1ccc([N+](=O)[O-])cc1)N1CCOCC1` [A11.012] it is 19.1 µM.
As to `CCN(CC)c1ccc(/C=C(\NC(=O)c2ccccc2)C(=O)N/N=C/c2ccc(O)c([N+](=O)[O-])c2)cc1` [A11.002], the IC50 turned out to be 7.6 µM.

The same assay, now with this note: Table 12; read-out: IC50APN.
In the case of `Cc1ccc(NC(=O)/C(=C\c2ccco2)NC(=O)c2ccccc2Cl)cc1` [A12.033], the IC50 worked out at 17.9 µM.
Still for that read-out and setting: the figure for `C/C(=N/O)c1ccc2c(c1)OCCOCCOc1cc(/C(C)=N\O)ccc1OCCOCCO2` [A12.017] is 8.6 µM; for `NCCCC[C@@H](N)C(=O)N[C@H](Cc1ccccc1)C(=O)N[C@H](Cc1ccc(O)cc1)C(=O)O` [A12.011] (H-[dK]-[dF]-[dY]-OH) it is 7.3 µM; for `CN(C)CCCN1CCN(c2nc(N(C)CC(=O)O)c3ncn(Cc4ccc([N+](=O)[O-])cc4)c3n2)CC1` [A12.023] it is 11.8 µM.
Still for that read-out and setting: the figure for `CC(=O)c1cccc(-c2ccc(/C=C3/C(=O)N(CCCO)C(=O)C(C#N)=C3C)o2)c1` [A12.034] is 18.2 µM.
Still for that read-out and setting: the figure for `N#CCCCCCCCCC(=O)NO` [A12.069] is 80.6 µM.

(Values after patent publication US20070037752A1, “Novel alanyl-amino peptidase inhibitors for functionally influencing different cells and treating immunological, inflammatory, neuronal, and other diseases” (priority 2003, published 2007).)
